The source of these data is PMC5356443, “Structural, mechanistic and functional insight into gliotoxin bis-thiomethylation in Aspergillus fumigatus” (Open Biology, 2017).

For data set [1], the target named is GtmA (gliotoxin S-methyltransferase, TmtA) (Aspergillus fumigatus, UniProt Q4X158). The data set is described as follows: RP-HPLC methyltransferase assay with purified enzyme, Km determination. In kind it is biochemical.
The test system of data set [2] is [H][C@]12C(=CC=C[C@@H]1O)C[C@@]1(S)C(=O)N(C)[C@@](S)(CO)C(=O)N12. The description is as above. In kind it is biochemical, Aspergillus fumigatus. The following applies: SAM.

One may read the Km as the substrate concentration at which the rate is half of its maximum.

GtmA (gliotoxin S-methyltransferase, TmtA), sequence (Q4X158 whole entry): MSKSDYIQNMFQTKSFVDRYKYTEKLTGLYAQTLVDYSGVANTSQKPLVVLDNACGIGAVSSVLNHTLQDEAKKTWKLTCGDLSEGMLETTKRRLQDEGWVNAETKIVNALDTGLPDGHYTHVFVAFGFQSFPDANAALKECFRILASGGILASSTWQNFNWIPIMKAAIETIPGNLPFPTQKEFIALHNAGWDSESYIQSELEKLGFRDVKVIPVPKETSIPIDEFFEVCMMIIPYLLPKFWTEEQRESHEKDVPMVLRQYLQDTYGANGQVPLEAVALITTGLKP

Consider `CS[C@@]12CC3=CC=C[C@H](O)[C@H]3N1C(=O)[C@](S)(CO)N(C)C2=O` [MmGT, monomethylgliotoxin], for which, in data set [1], the Km stood at 184 µM.
For “GtmA (gliotoxin S-methyltransferase, TmtA) (Aspergillus fumigatus Af293)”, the Michaelis-Menten constant (Km) in data set [2] is 38.62 µM.
